In US8481521B2, “Methods of treating cell proliferative disorders” (Rigel Pharmaceuticals, Inc., priority 2005, dated 2013):

Tests used:
[1] = Solubility of drug and phosphate prodrug; format: physicochemical; details: water solubility; read-out: Solubility
Excerpt: In contrast, Compound 4 is highly polar at neutral pH. Measured solubility values are consistent with the predicted cLogD values at pH=7.5.

Flt-3 = Flt-3 phosphorylation in MV4-11 tumor lysates (immunoprecipitation, Western blot); format: in vivo, human; details: 40 mg/kg VII, about two hours after final dose, vs vehicle
Procedure: Panel A is detection of phosphorylated Flt-3 in MV4-11 tumor lysates from mice approximately two hours after the final dose of VII or vehicle using anti-phosphotyrosine antibody on the left and anti-phospho-Flt-3 specific antibody on the right side of the blot. Additionally, a reprobe of the blot for the total Flt-3 levels are shown in Panel B.
Western blot analysis of phosphorylated Flt-3 was carried out as follows.
3. Weigh and normalize in 250 mg/l ml ice-cold RIPA buffer (Santa Cruz Biotechnology, sc-24948) containing protease inhibitor and phosphotase inhibitor cocktail (Sigma, P5726, 1 ml/100 ml lysis buffer).
Immunoprecipitation. • 1. Take 1 mg tumor lysate and add primary antibody 2 ug (Anti-Flt-3 S18, Santa Cruz, #sc-480) adjust volume to 500 ul with lysis buffer. Incubate with gentle rocking for 1 h at 4° C. • 2. Add protein A/G plus-agarose beads (Santa Cruz, SC-2003) 40 ul. Incubate with gentle rocking for 1 h at RT. • 3. Microcentrifuge for 30 second at 4° C. Wash pellet three times with 500 ul of 1× lysis buffer. Keep on ice during washes. • 4. Resuspend the pellet with 30 ul 2× Tris-Glysine SDS loading buffer+5 ul reducing agent 10× (Invitrogen). • 5. Heat the sample to 95-100° C. for 5 minutes. • 6. Store the sample at −80° C.
Western Blot Procedure. • 1. Load 20 ul of the sample on 8% Tris-Glysine gel. • 2. Run in 1× Tris-glysine SDS running buffer. • 3. […]

[2] = Pharmacokinetics / oral bioavailability in Sprague-Dawley rats; format: in vivo
Procedure: Prodrug Compound 4 was tested for oral bioavailability. For the study, the prodrug was dissolved in various vehicles (e.g. PEG 400 solution and CMC suspension) for intravenous and oral dosing in the rats. […] Following administration of the prodrug and/or drug, plasma samples were obtained and extracted. The plasma concentrations of the prodrug and/or drug were determined by high performance liquid chromatography/tandem mass spectrometry (LC/MS/MS) methods. Pharmacokinetic analyses were performed based on the plasma concentration data. The pharmacokinetic parameters of interest include Clearance (CL), Volume of distribution at steady-state (Vss), terminal half-life (t1/2), and oral bioavailability (% F).
Referring to FIG. 16, PK profiles are shown for IV and PO administration in Spraque-Dawley rats. For IV administration, Compound 4 was dissolved in PEG-400 and administered at a dose of 1 mg/kg.
FIG. 17 summarizes the PK parameters for the study described in FIG. 4.
FIG. 23 illustrates the absorption of prodrug Compound 4 from different vehicles.

[3] = Stability under acidic and neutral conditions; format: physicochemical; details: 37° C.

COc1cc(Nc2ncc(F)c(Nc3ccc4c(n3)N(COP(=O)(O)O)C(=O)C(C)(C)O4)n2)cc(OC)c1OC [Compound 4, N4-(2,2-dimethyl-4-[(dihydrogenphosphonoxy)methyl]-3-oxo-5-pyrido[1,4]oxazin-6-yl)-5-fluoro-N2-(3,4,5-trimethoxyphenyl)-2,4-pyrimidinediamine]
solubility [1]: > 5000 µg/mL | Constitutive phosphorylation of Flt-3 in tumors (Flt-3): reduced | prodrug in plasma after IV administration ([2]; 1 mg/kg IV in PEG-400): Rapid disappearance | absorption from different vehicles ([2]; PEG-400, CMC, powder in hard gelatin capsules): absorbed equally well | plasma levels of drug metabolite Compound III after oral prodrug ([2]; PO in PEG-400): high levels | prodrug present systemically after oral administration ([2]; PO in PEG-400): no prodrug Compound 4 was present systemically | AUC/dose of drug Compound III exposure ([2]; oral Compound III 2.5 mg/kg or Compound 4 4 mg/kg in PEG-400): nearly identical | stability under acidic and neutral conditions [3]: stable
